The source of these data is patent US20220089541A1, “Compounds for the Treatment of Kinase-Dependent Disorders” (Exelixis, Inc., priority 2019, published 2022).

For data set [1] the following is noted: microsomes, pH 7.4.
Experimental: (§1) Liver microsomes tissue fractions were used for in vitro assessment of metabolic stability of compounds by cytochrome P450 (CYP450) (for example, CYP3A4, CYP2C9) mediated phase I oxidation, and metabolism through other pathways. Human, mouse, rat, and dog liver microsomes tissue fractions were obtained from Corning Gentest and BioreclamationIVT.
(§2) The assay was carried out in 96-well microtiter plates. Compounds were incubated (N=l) at 37° C. in the presence of liver microsomes. Reaction mixtures (25 μL) contained a final concentration of 1 μM test compound, 0.5 mg/mL liver microsomes (LM) protein, and 1 mM NADPH in 100 mM potassium phosphate, pH 7.4 buffer with 3.3 mM MgCl2. The extent of metabolism was calculated as the disappearance of the test compound, compared to the 0-min control reaction incubations. Verapamil was included as a positive control to verily assay performance.
(§3) At each of the four time points, 150 μL of quench solution (100% acetonitrile with 0.1% formic acid) with internal standard (bucetin for positive ESI mode) was transferred to each well. Plates were sealed and centrifuged at 10° C. for 15 minutes at 4000 rpm. The supernatant was transferred to fresh plates for LC/MS/MS analysis.
(§4) All samples were analyzed on LC/MS/MS using an AB Sciex API 4000 instrument, coupled to a Shimadzu LC-20AD LC Pump system. Analytical samples were separated using a Waters Atlantis T3 dC18 reverse phase HPLC column (20 mm×2.1 mm) at a flow rate of 0.5 mL/min. The mobile phase consisted of 0.1% formic acid in water (solvent A) and 0.1% formic acid in 100% acetonitrile (solvent B).
For data set [2] the following is noted: microsomes, pH 7.4. This is another data set of the same source.
Experimental: as §1, §2, §3, §4
The conditions of data set [3]: microsomes, pH 7.4. This is another data set of the same source.
Experimental: as §1, §2, §3, §4
Data set [4] in a line: Microsomal assay, mouse liver microsome stability. The conditions noted are these: liver microsomes, pH 7.4.
Experimental: as §1, §2, §3, §4
The nature of data set [5]: Microsomal assay, rat liver microsome stability. As to conditions: liver microsomes, pH 7.4.
Experimental: as §1, §2, §3, §4
In data set [6] the target is T1, KDR (Homo sapiens, UniProt P35968).
T1 construct: host or cells: HUVEC (human umbilical vein endothelial cells)
T1 sequence (P35968 20-1356): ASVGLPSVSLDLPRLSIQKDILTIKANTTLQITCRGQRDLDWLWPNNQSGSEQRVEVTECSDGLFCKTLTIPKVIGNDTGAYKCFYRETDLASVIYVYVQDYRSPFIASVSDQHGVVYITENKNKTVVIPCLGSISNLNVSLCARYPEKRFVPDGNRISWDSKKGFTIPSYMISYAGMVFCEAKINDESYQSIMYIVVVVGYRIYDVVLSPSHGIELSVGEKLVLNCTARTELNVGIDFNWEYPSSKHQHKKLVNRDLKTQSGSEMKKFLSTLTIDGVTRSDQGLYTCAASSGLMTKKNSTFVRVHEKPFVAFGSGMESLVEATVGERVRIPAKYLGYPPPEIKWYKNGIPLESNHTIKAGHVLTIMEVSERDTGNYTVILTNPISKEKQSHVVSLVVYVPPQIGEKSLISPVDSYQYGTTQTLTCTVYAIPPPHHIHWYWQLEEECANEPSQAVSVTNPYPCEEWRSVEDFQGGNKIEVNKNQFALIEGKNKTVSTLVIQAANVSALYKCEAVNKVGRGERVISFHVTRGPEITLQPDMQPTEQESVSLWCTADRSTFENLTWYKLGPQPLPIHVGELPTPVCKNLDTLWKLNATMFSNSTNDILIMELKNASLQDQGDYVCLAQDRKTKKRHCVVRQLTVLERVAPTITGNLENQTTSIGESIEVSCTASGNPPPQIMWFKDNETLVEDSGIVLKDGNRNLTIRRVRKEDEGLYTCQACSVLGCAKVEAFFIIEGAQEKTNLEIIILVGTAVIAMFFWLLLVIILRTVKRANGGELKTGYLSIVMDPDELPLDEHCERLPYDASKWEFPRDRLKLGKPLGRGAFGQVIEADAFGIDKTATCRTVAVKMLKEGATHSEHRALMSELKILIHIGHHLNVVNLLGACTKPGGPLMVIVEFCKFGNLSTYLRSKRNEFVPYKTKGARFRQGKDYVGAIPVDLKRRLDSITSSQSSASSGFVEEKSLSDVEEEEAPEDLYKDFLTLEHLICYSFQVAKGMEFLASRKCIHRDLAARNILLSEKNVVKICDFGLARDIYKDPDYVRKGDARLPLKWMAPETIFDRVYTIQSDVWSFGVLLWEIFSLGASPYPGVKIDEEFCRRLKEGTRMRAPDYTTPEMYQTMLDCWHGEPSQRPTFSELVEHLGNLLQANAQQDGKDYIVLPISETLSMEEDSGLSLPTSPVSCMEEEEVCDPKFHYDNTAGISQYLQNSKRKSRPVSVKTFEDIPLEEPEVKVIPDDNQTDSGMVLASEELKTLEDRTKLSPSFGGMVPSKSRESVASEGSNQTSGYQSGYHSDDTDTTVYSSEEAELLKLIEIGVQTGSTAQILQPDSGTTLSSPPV
The data set is described as follows: KDR autophosphorylation ELISA in HUVEC cells. Format: cell-based. The conditions noted are these: VEGF165-stimulated, phospho-KDR ELISA, 1 h compound incubation. As to the method:
Example C: KDR Autophosphorylation ELISA in HUVEC Cells
umbilical vein endothelial cells or HUVEC (Lonza #C2519A) were seeded at 2×10^4 cells/well onto 96-well plates (Corning #3904), in EGM-2 growth medium (Lonza #CC-3162) containing 1% Penicillin Streptomycin (Thermo Fisher #15140-122). HUVEC cells were incubated at 37° C., 5% CO2 for 24 h and then starved for 24 h in serum-free EBM-2 basal medium (Lonza #CC-3156) containing 1% Penicillin Streptomycin. Test compounds were serially diluted to produce an 8-point dose curve in fresh serum-free medium to a final concentration of 0.3% DMSO (vehicle) and added to the cells and incubated for 1 h. Cells were then stimulated with 100 ng/mL recombinant human VEGF165 (R&D Systems #293-VE-500) for 5 min, washed with cold PBS, and immediately lysed with 130 μL of cold IX lysis buffer [20 mM Tris, 137 mM sodium chloride, 2 mM EDTA, 10% glycerol, 1% NP-40 alternative, 1 mM activated sodium orthovanadate, 1 mM PefaBloc SC (Sigma-Aldrich #11429868001), protease/phosphatase inhibitor tablet (Thermo Fisher #A32959)]. Lysates were collected and 100 μL/well added into the human phospho-KDR DuoSet IC ELISA (R&D Systems #DYC 1766-2). Assay was performed according to manufacturer's instructions and sample phospho-KDR concentrations were extrapolated using human phospho-KDR control (R&D Systems #841421) as a standard. Positive control wells (100% activity) contained VEGF165-stimulated, DMSO-treated cell lysates. Negative control wells (0% activity) contained non-stimulated cell lysates. IC50 values were calculated by nonlinear regression analysis using a 4-parameter logistic curve fit in ActivityBase XE (IDBS).
In general terms: In an ELISA, binding on a coated surface is turned into a signal by an enzyme label.

Data set [7] can be described thus: Microsomal assay, human liver microsome stability. The conditions noted are these: liver microsomes, pH 7.4.
Experimental: as §1, §2, §3, §4
Data set [8] deals with T2, Met (Homo sapiens, UniProt P08581).
T2 construct: host or cells: PC-3 prostate cancer cells
T2 sequence (P08581 25-1390): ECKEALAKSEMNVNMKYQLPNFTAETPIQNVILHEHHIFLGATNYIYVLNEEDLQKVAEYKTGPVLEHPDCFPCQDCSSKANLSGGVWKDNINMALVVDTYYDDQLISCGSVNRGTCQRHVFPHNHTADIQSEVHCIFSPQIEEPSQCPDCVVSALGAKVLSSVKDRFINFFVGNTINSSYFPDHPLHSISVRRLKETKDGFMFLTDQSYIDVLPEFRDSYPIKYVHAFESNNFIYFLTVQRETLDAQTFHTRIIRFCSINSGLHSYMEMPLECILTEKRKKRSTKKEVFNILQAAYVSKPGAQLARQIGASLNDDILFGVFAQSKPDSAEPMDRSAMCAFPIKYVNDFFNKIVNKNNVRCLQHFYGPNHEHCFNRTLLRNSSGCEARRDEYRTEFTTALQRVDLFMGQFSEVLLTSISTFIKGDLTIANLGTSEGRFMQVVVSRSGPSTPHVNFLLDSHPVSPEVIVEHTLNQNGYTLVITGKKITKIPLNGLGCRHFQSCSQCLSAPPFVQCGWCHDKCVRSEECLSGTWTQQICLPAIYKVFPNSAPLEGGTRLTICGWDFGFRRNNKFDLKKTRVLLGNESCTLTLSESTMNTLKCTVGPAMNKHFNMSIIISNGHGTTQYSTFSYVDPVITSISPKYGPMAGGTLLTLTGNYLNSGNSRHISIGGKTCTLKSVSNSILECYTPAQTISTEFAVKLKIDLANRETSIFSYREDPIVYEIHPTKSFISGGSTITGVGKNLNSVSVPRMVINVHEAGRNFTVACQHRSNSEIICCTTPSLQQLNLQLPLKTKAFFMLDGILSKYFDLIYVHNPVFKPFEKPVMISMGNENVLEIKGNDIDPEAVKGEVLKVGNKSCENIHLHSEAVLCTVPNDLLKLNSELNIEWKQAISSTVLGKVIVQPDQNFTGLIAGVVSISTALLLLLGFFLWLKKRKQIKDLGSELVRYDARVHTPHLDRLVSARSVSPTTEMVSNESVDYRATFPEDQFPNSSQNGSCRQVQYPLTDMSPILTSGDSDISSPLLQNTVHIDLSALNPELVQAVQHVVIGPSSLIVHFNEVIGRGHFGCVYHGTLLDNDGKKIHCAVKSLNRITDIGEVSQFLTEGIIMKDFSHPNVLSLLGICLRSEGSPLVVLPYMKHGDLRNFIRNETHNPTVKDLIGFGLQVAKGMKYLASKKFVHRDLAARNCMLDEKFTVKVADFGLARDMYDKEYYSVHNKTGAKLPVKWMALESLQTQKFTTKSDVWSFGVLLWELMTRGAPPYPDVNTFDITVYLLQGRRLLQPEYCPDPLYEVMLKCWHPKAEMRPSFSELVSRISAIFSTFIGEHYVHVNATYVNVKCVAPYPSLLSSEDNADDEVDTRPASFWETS
The experiment in a line: Met autophosphorylation ELISA in PC-3 cells. The class given is cell-based. The conditions noted are these: PC-3 prostate cancer cells, HGF-stimulated, phospho-Met ELISA, 1 h compound incubation; read-out: c-Met IC50. On the procedure: Example B: Met Autophosphorylation ELISA in PC-3 Cells
PC-3 prostate cancer cells (ATCC #CRL-1435) were seeded at 4×10^4 cells/well onto 24-well plates (Greiner #662165), in DMEM (Thermo Fisher #11995-040) containing 10% FBS (Thermo Fisher #26140-079), 1% MEM NEAA (Thermo Fisher #11140-050), 1% GlutaMax (Thermo Fisher #35050-061), and 1% Penicillin Streptomycin (Thermo Fisher #15140-122). PC-3 cells were incubated at 37° C., 5% CO2 for 24 h and then starved for 3 h in serum-free medium. Test compounds were serially diluted to produce an 8-point dose curve in fresh serum-free medium to a final concentration of 0.3% DMSO (vehicle) and added to the cells and incubated for 1 h. Cells were then stimulated with 100 ng/mL recombinant human HGF (R&D Systems #294-HG-250) for 10 min, washed with cold PBS, and immediately lysed with 130 μL of cold IX lysis buffer [20 mM Tris, 137 mM sodium chloride, 2 mM EDTA, 10% glycerol, 1% NP-40 alternative, 1 mM activated sodium orthovanadate, 1 mM PefaBloc SC (Sigma-Aldrich #11429868001), protease/phosphatase inhibitor tablet (Thermo Fisher #A32959)]. Lysates were clarified by centrifugation and 100 μL/well added into the PathScan phospho-Met (panTyr) Sandwich ELISA (Cell Signaling Technology #7333). Assay was performed according to manufacturer's instructions. Positive control wells (100% activity) contained HGF-stimulated, DMSO-treated cell lysates. Negative control wells (0% activity) contained HGF-stimulated, reference inhibitor-treated cell lysates. IC50 values were calculated by nonlinear regression analysis using a 4-parameter logistic curve fit in ActivityBase XE (IDBS).

Data set [9] concerns the target T3, AXL (Homo sapiens, UniProt P30530).
T3 construct: host or cells: A-172 glioblastoma cells
T3 sequence (P30530 26-894): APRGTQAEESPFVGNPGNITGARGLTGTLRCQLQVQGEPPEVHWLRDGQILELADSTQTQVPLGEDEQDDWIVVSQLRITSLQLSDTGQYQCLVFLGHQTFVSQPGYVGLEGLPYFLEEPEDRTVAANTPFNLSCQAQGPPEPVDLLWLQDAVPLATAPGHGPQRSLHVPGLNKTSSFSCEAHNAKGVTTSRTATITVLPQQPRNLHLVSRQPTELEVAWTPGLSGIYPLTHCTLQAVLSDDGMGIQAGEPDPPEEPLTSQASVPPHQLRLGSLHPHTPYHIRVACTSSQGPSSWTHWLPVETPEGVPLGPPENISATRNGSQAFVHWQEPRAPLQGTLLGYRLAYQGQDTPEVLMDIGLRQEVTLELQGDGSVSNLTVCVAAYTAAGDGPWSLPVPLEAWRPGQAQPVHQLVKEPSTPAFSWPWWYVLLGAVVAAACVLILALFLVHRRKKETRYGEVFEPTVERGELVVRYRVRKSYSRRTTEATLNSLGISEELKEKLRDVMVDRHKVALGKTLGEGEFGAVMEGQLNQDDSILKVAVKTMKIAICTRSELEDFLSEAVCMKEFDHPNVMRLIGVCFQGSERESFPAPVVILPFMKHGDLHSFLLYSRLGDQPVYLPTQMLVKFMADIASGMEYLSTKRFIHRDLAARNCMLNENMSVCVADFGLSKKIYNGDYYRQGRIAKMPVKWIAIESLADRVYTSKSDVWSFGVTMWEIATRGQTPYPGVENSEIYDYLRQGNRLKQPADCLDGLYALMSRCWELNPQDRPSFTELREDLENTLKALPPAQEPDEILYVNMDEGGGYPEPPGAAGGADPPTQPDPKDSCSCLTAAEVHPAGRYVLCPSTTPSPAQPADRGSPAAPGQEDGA
The data set is described as follows: AXL autophosphorylation ELISA in A-172 cells. Format: cell-based. As to conditions: A-172 glioblastoma cells, Gas6-stimulated, phospho-AXL ELISA, 1 h compound incubation. As to the method: Example A: AXL Autophosphorylation ELISA in A-172 Cells
A-172 glioblastoma cells (ATCC #CRL-1620) were seeded at 2.5×10^5 cells/well onto 24-well plates (Greiner #662165), in DMEM (Thermo Fisher #11995-040) containing 10% FBS (Thermo Fisher #26140-079), 1% MEM NEAA (Thermo Fisher #11140-050), 1% GlutaMax (Thermo Fisher #35050-061), and 1% Penicillin Streptomycin (Thermo Fisher #15140-122). A-172 cells were incubated at 37° C., 5% CO2 for 24 h and then starved for 24 h in serum-free medium. Test compounds were serially diluted to produce an 8-point dose curve in fresh serum-free medium to a final concentration of 0.3% DMSO (vehicle) and added to the cells and incubated for 1 h. Cells were then stimulated with 1 μg/mL recombinant human Gas6 (R&D Systems #885-GSB-500) for 15 min, washed with cold PBS, and immediately lysed with 150 μL of cold IX lysis buffer [20 mM Tris, 137 mM sodium chloride, 2 mM EDTA, 10% glycerol, 1% NP-40 alternative, 1 mM activated sodium orthovanadate, 1 mM PefaBloc SC (Sigma-Aldrich #11429868001), protease/phosphatase inhibitor tablet (Thermo Fisher #A32959)]. Lysates were collected and 100 μL/well added into the human phospho-AXL DuoSet IC ELISA (R&D Systems #DYC2228-2). Assay was performed according to manufacturer's instructions and sample phospho-AXL concentrations were extrapolated using human phospho-AXL control (R&D Systems #841645) as a standard. Positive control wells (100% activity) contained Gas6-stimulated, DMSO-treated cell lysates. Negative control wells (0% activity) contained Gas6-stimulated, reference inhibitor-treated cell lysates. IC50 values were calculated by nonlinear regression analysis using a 4-parameter logistic curve fit in ActivityBase XE (IDBS).

For orientation: half-life means how long it takes for the measured level to halve. As a reminder, the IC50 is the concentration needed to halve the response being measured.

Where only a bound is given, the exact number is not on record here.

In the case of “1-N-[4-(6,7-Dimethoxyquinolin-4-yl)oxyphenyl]-1-N′-(4-fluorophenyl)-1-N′-(methoxymethyl)cyclopropane-1,1-dicarboxamide [Compound 49]”, in data set [1], the “Human Liver Microsome Stability CLint (μL/min/million cells)” value is listed as 1052 and the “Human Liver Microsome Stability t½” value turned out to be 1.3 min. Besides, in data set [2], the “Mouse Liver Microsome Stability CLint (μL/min/million cells)” value is given as 928 and the “Mouse Liver Microsome Stability t½” value came to 1.49 min. In addition, in [3], the “Rat Liver Microsome Stability CLint (μL/min/million cells)” value was 1028 and the “Rat Liver Microsome Stability t½” value came out at 1.35 min.

Turning to `COc1cc2c(Oc3ccc(NC(=O)C4(C(=O)N(C)c5ccc(F)cc5)CC4)cc3F)ccnc2cc1OCCCN1CCOCC1` [Compound 11, N-(3-Fluoro-4-((6-methoxy-7-(3-morpholinopropoxy)quinolin-4-yl)oxy)phenyl)-N-(4-fluorophenyl)-N-methylcyclopropane-1,1-dicarboxamide], the figures for the half-life at 1 μM in data set [4], in [5] and in data set [7] were 7.3 min, 1.6 min and 1.6 min, respectively. Further, the half-maximal inhibitory concentration (IC50) in data set [6] and in data set [8] was greater than 300 nM throughout.

For the molecule `COc1cc2nccc(Oc3ccc(NC(=O)C4(C(=O)N(C)c5ccc(F)cc5)CC4)cc3F)c2nc1OC` [Compound 44, 1-N-[4-[(6,7-Dimethoxy-1,5-naphthyridin-4-yl)oxy]-3-fluorophenyl]-1-N′-(4-fluorophenyl)-1-N′-methylcyclopropane-1,1-dicarboxamide], the IC50 in [6], in data set [9] and in data set [8] was greater than 300 nM each time.
